The results in this text go back to publication PMC5711494, “Sterol methyltransferase a target for anti-amoeba therapy: towards transition state analog and suicide substrate drug design” (Journal of Lipid Research, 2017).

Structures are written as SMILES. Entries after “also recorded” stand apart in the source; their conditions may differ.

Holding throughout (assay type): biochemical, Acanthamoeba castellanii
Test [1] deals with Ac24-SMT. The experiment in a line: Time-dependent inactivation of Ac24-SMT (Kitz and Wilson plot). As to the method:
To show time-dependent inactivation, experiments were performed with a 100,000 g supernatant fraction containing the recombinant Ac24-SMT in two major steps. First, a preincubation experiment was established; to a 9 ml test tube containing DHL at the test concentrations (varied between 0 and 20 µM), 2.4 mg of total protein (ca. 160 µg SMT), 1.5 ml buffer, and a fixed concentration of SAM (100 µM) were added. The incubation was allowed to incubate for up to 20 min at 35°C. Second, at the time indicated, aliquots (20 µl) of the preincubation preparation were placed in a precooled (dry ice-ethanol) test tube to prevent catalysis. The frozen samples were then individually thawed and filtered three times with phosphate buffer to remove excess unbound inhibitor using Amicon ultracentrifugation filters. The remaining enzyme activity in each sample was determined by assaying each at saturating cycloartenol concentration (100 µM) and [methyl-^3H3] SAM (100 µM; 0.6 µC) under standard assay conditions for 1 h. The logarithmic percentage of remaining enzyme activity was plotted against the incubation time of the enzyme-inhibitor mixture to determine the half-life (T1/2) of inactivation. […] The point of intersection with the ordinate is the T1/2 at saturation from which the kinact can be calculated whereas the intercept along the X-axis gives the −1/Ki from which the Ki can be calculated.

Test [2] concerns Ac24-SMT. As to the kind of experiment: Substrate kinetics and product analysis with recombinant Ac24-SMT. As to the method:
(§1) The SMT constructs were transformed into competent BL21(DE3) cells and transformants selected against 100 µg/ml ampicillin. Expression of the SMT constructs and partial purification of the recombinant proteins followed the procedure described previously ([19]). […] In one tube, cells were induced by addition of isopropyl thio-galactoside at a final concentration of 1 mM and in the other tube, were un-induced. Cells were harvested 2 and 4 h after induction and an equal number of cells (as calculated by OD @600 nm) from induced (+) and un-induced (−) cultures were boiled with 1X Laemmli’s buffer and analyzed by SDS-PAGE (12%). Gel was stained with Coomassie Brilliant Blue (0.2%) to establish the molecular weight and purity of the expressed protein. Total protein concentrations were determined by Bradford dye-binding procedure with bovine γ-globulin as standard. To determine the catalytic activity of the recombinant proteins, enzyme assays were carried out using soluble bacterial extract (100,000 g fraction) in 9 ml test tubes containing a total of 600 µl assay volume for 45 min (initial velocity conditions). The assay buffer contained 20 mM phosphate buffer in 5% (v/v) glycerol at pH 7.5, sterol acceptor emulsified in 12 µl Tween 80 (1.2 g/l), and the substrate tested over the concentration range 5 to 150 µM against 1.2 mg of total protein. The reaction was initiated by the addition of saturating levels of [methyl-^3H3]SAM, 0.9 µCi, at 150 µM. Incubation mixtures were saponified with methanolic potassium hydroxide and extracted with hexane (3 × 1 ml) and concentrated to dryness providing the nonsaponifiable lipid fraction; radioactivity was determined by liquid scintillation counting. […]

Test [3] deals with Ac28-SMT. The experiment in a line: Substrate kinetics and product analysis with recombinant Ac28-SMT. As to conditions: incubated with SAM cosubstrate. As to the method: as §1

As to `CC(CCC=C1CC1)C1CC[C@@]2(C)C3=C(CCC12C)C1(C)CCC(O)C(C)(C)C1CC3` (stereo partly shown) [DHL, 26,27-dehydrolanosterol], the “partition ratio (kcat/kinact)” value in test [1] (C26 methyl monol product per inactivation event, 24-SMT) is given as around 1. For the same molecule, the “kinact (maximum rate of inactivation) of Ac24-SMT” value in test [1] (preincubation with SAM 100 µM, 35°C) is around 0.4 min⁻¹. In addition, the “difference in catalytic competence (kcat/Km) from the natural substrate of 24-SMT” value in test [2] is “greater than 10 fold”. Further, in test [2] (GC/MS, saturating cosubstrates), the “conversion by Ac24-SMT to product P1 (C26-monol)” value worked out at 3% and the “conversion by Ac24-SMT to product P2 (C26-diol)” value is 1%. Further, the “Km (Michaelis / binding constant) as substrate of Ac24-SMT” value in test [2] (saturating SAM 150 µM, initial velocity conditions) was around 33 µM. Further, the “activity / methyl product formation as substrate of Ac28-SMT” value in test [3] is reported as “not productively bound; also recorded: no activity was observed; also recorded: no methyl products were detected”.
